From patent US11072601B2, “μ-opioid receptor agonist and preparation method therefor and use thereof in field of medicine” (SHANGHAI SYNERGY PHARMACEUTICAL SCIENCES CO., LTD., priority 2017, dated 2021)

How the values were obtained:
[1] = target: T1, cAMP pathway of MOR receptor (Homo sapiens, UniProt P35372); test: cell-based; conditions: cAMP Hunter HEK293 cells, forskolin-induced cAMP; read-out: EC50 of cAMP levels affected by agonistic effect on MOR
T1 construct: host or cells: HEK293 (cAMP Hunter cell line)
Excerpt: The purpose of this experiment was to test the agonistic effect of the compounds of the invention on the cAMP pathway of MOR and to evaluate the in vitro activity of the compounds according to EC50.
In this experiment, HitHunter cAMP Assay EFC technology of DiscoverX was used to measure the cAMP level in cells and monitor the functional status of G-protein coupled receptors (GPCRs).
The amount of signal produced was directly proportional to the amount of cAMP in the cell.
The MOR receptor was bound to the inhibitory Gαi protein, so forskolin (for inducing cAMP signal) was used to induce cAMP expression in the experiment, and the inhibitory effect of the compounds on the above induction was measured.
The cAMP Hunter cell line (HEK293, DiscoverX) was removed from the freezer and expanded according to the Cell Standard Operating Procedure (SOP), 20 μL was collected and inoculated into a 384-well microplate and incubated at 37° C. overnight.
The HitHunter cAMP Assay test kit (DiscoverX, 90-0075sm) was used, the kit contained cAMP buffer, cAMP detection solution, and cAMP working solution A.
The formula was used to calculate the percentage of signal activity per well=100%×(1−(average RLU of the test samples−average RLU of the MAX controls)/(average RLU of the solvent controls−average RLU of the MAX controls)). wherein, the MAX control referred to the fluorescence signal value of the endorphin solution, and the solvent control referred to the fluorescence signal value of DMSO. The DiscoveRx CBIS data analysis workstation (ChemInnovation, CA) was used to perform statistical analysis of the percentage of signal activity and the concentration of the compounds by the agonist formula (comes with the software, universal) to calculate the EC50 value.

μ opioid receptor (MOR) = target: T2, μ opioid receptor (MOR) (Homo sapiens, UniProt P35372); test: cell-based; conditions: HEK293 stably expressing μ opioid receptor, FLIPR calcium
T2 construct: host or cells: HEK293
Method: The purpose of the experiment was to test the agonistic effects of the compounds of the present invention on μ opioid receptor (MOR), κ opioid receptor (KOR) and δ opioid receptor (DOR), and to evaluate in vitro activity of the compounds according to the half-maximal effect concentration (EC50).
This test was performed using HEK293 cell lines (the stably expressed cell lines were provided by WuXi AppTec) which stably expressed μ opioid receptor, δ opioid receptor or κ opioid receptor respectively. […] The cells were centrifuged at 1000 rpm for 5 minutes at room temperature to precipitate. The supernatant was sucked out, be careful not to suck out cells. The precipitate was flicked into the loose cells and resuspend in 45 ml DMEM medium. The Vi-CELL XR automatic cell viability detector (BECKMAN COULTER) was used to count the cells, and the cell concentration was adjusted to 10×10^5 cells/ml based on the counting results.
Preparation of probenecid mother solution: 1 ml of FLIPR test solution was added to 77 mg probenecid to prepare a 250 mM solution. The solution was freshly prepared just before use.
The solution was freshly prepared just before use.
The cell plate prepared above was removed from the incubator and 20 ul 2× Fluo-4 Direct™ buffer was added thereto. The final volume in the cell plate was […]. The plate was incubated at 37° C., under 5% CO2 for 50 minutes, and incubated at room temperature for 10 minutes, then was placed into the FLIPR instrument (MD), and the compound plate and pipette box was placed into. The protocol was run on the […] platform, 10 μl of positive drug or the test compound was transfered to the cell plate from the compound plate, and the fluorescent signal was read.
The signal value generated by each well was calculated, and the calculation formula was that: the activity %=(signal value of the test compound−signal value of the solvent)/(signal value of the positive drug−signal value of the solvent).

[2] = test system: rat surgical incision injury model; test: Rat surgical incision injury model, von Frey paw withdrawal threshold; format: in vivo, SD rats; conditions: rats, intravenous 0.3 mg/kg
Excerpt: (§1) 8-week-old male SD rats weighing 200 g-300 g were used as experimental animals to determine the effect of the compound of Example H02, the compound of Example H04, the compound of Example H10, the compound of Example H16, the compound of Example H17, the compound of Example H18, the compound of Example H21 and the compound of Example H24 on surgical pain in rats after intravenous administration. The analgesic effect of the compounds was discussed.
A certain amount of the compounds or TRV130 (MCE, 15150) was weighed, and dissolved in ethanol/castor oil/water=10/10/80 as a clear and transparent solution.
Three days after the rats were acclimatized to the experimental environment, the preoperative base value was determined, and followed by the surgical pain operation described below, about 24 hours after the surgery, the basic value was measured before administration on all animals, and mechanically hypersensitive animals (the paw withdrawal threshold (PWT) was less than 5 g) was randomly assigned to each administration group according to PWT. The pain threshold was determined 30 minutes and 60 minutes after intravenous administration of the positive drug TRV130 or each compound of the present invention (at a dose of 0.3 mg/kg).
The surgical procedure was performed aseptically, and the surgical instruments (scissors, tweezers, scalpels, surgical cotton and sutures) were sterilized before surgery. The animals were anesthetized with sodium pentobarbital (50 mg/kg, injected intraperitoneally), and the toes of the animals were squeezed to confirm that the animals were completely anesthetized before surgery. From the position of 0.5 cm away from the heel, an incision about 1 cm was made in the longitudinal direction of the toe. After cutting the skin, the musculus flexor digitorum brevis was raised and a blunt injury was caused longitudinally. After pressing to stop bleeding, the wound was sutured. When the animal was completely awake (free to move), the animal was put back into the cage (the reference of the construction of surgical pain model: Timothy J. Brennan, Erik P. Vandermeulen, G. F. Gebhart. Characterization of a rat model of incisional pain. Pain, 64(1996):493-501).
An up-down method was used for the determination of pain sensitivity. The mechanical pain results were expressed as animal paw withdrawal response threshold (PWT). The rat was placed separately in a plexiglass box with a mesh at the bottom of the box to ensure that the rat's feet could be tested. The rat was acclimatized for 15 minutes before the test, and after the acclimatization, the test fiber (von frey fiber, West coast) was used to test in the middle part of the hind foot of the rat. The test fibers included 8 test strengths: 3.61 (0.4 g), 3.84 (0.6 g), 4.08 (1 g), 4.31 (2 g), 4.56 (4 g), 4.74 (6 g), 4.93 (8 g), and 5.18 (15 g). During the test, the test fiber was pressed vertically against the skin and a force was applied to bend the fiber for 6-8 seconds, at an interval of 5 seconds between each test. During the test, the animal's rapid withdrawal was recorded as a pain response. When the test fiber left the animal's skin, the animal's withdrawal was also recorded as a pain response. Starting from 2 g, depending on whether the rats had any pain response, the test was changed into the next test intensity or the previous test intensity. A series of responses of the rats to different test intensities were recorded. […] Wherein, Xf was the logarithmic value of von Frey fiber used in the last test, and K value was the animal withdrawal reaction mode (recorded during the test), which was the value obtained after looking up the table according to the obtained sequence of “X” and “O”, δ=Mean of logarithmic difference between von Frey fibers used in the test.

[3] = target: T3, β-arrestin signaling pathway of MOR (Homo sapiens, UniProt P35372); test: cell-based; conditions: PathHunter HEK293 cells, relative to endorphin MAX control
T3 construct: host or cells: HEK293 (PathHunter cell line)

SD rats = test: Respiratory depression in rats, arterial blood gas PCO2; format: in vivo
Excerpt: as §1, with “H05,” for “H02,”, “H08,” for “H04,”, “H21,” for “H21”, “the partial pressure of blood” for “surgical pain”, “effects” for “analgesic effect”, “of the invention on respiratory depression were investigated.” for “was discussed.”
After the rats were acclimatized to the experimental environment for 3 days, each animal was anesthetized with sodium pentobarbital (50-60 mg/kg, ip), and then the right common carotid artery was isolated and the unilateral carotid artery tube-bury surgery was performed (PE60, ID*OD*length as 0.76 mm*1.22 mm*20 cm, buried into the artery 1 cm deep, and the tube was filled with heparin sodium tube sealing solution).

T3 sequence (P35372 whole entry): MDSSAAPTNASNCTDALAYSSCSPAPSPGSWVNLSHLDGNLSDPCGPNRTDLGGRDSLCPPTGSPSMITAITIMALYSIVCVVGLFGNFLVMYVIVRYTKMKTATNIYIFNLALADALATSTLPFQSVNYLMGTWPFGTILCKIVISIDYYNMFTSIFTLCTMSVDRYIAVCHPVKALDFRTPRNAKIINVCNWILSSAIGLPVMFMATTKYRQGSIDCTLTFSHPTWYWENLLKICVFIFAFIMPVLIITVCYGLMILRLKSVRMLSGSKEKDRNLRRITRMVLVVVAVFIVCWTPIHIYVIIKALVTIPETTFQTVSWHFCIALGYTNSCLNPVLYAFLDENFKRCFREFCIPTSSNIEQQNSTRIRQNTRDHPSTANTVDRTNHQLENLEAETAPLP
T2 sequence (P35372 whole entry, species assumed): as the sequence (P35372 whole entry) above
T1 sequence (P35372 whole entry): as above

## Cc1cc(F)cnc1C1(CCNCc2ccccc2OC(F)(F)F)CCOC2(CCCC2)C1 (stereo not shown) [Example H10, (2-trifluoromethoxybenzyl)-[2-(9-(3-methyl-5-fluoropyridin-2-yl)-6-oxaspiro[4.5]decan-9-yl)ethyl]amine]
[1]
  EC50: 2.89 nM
μ opioid receptor (MOR)
  EC50: 2.15 nM
[2]; 30 min
  50% PWT, 30 min after administration: 8.05 ± 0.24 g
[2]; 60 min
  50% PWT, 60 min after administration: 7.59 ± 1.02 g
[3]
  Emax: 3.7%
SD rats; arterial blood, before administration
  PCO2, 5 min before administration: 35.72 ± 1.88 mmHg
SD rats; intravenous single dose 0.3 mg/kg (morphine 24 mg/kg), 5 min
  PCO2, 5 min after administration: 37.48 ± 1.94 mmHg
SD rats; intravenous single dose 0.3 mg/kg (morphine 24 mg/kg), 30 min
  PCO2, 30 min after administration: 35.03 ± 1.89 mmHg
SD rats; intravenous single dose 0.3 mg/kg (morphine 24 mg/kg), 60 min
  PCO2, 60 min after administration: 36.27 ± 1.67 mmHg
SD rats; intravenous single dose 0.3 mg/kg (morphine 24 mg/kg), 120 min
  PCO2, 120 min after administration: 36.83 ± 1.85 mmHg
